# Target: T1, TRPM8 (Rattus norvegicus, UniProt Q8R455)
# T1 construct: from tissue; host or cells: whole animal, female SD rats (in vivo)
# Assay: Confirmation test of inhibitory effects on icilin-induced wet-dog shakes
# Type: in vivo
# Settings: female SD rats, icilin 1 mg/kg i.p. 1 hour after dosing, shakes counted for 5 minutes
# Description: Further, TRPM8 inhibitory activity can be evaluated by the efficacy inhibiting the wet-dog shake action which is induced by the administration of Icilin, TRPM8 agonist. Furthermore, an effect on overactive bladder (OAB) can be evaluated by an elongation of micturition interval against overactive bladder induced by acetic acid in accordance with a similar method described in J. Urol., 2001, 166, 1142.
# Confirmation Test of Inhibitory Effects on Icilin-induced Wet-dog Shakes
# Test compounds were dissolved in dimethylacetamide (wako), and 0.5% methylcellulose solution (wako) was added to make the solution or suspension containing 5% of dimethylacetatnide. At a dose of 0.3 to 10 mg/kg/5mL of test compounds were orally administered to female SD rats. After 1 hour, wet-dog shakes were induced by the intraperitoneal injection of icilin (1 mg/kg) which was dissolved in polyethylene glycol 400 (wako). From 5 minutes after the administration of icilin, wet-dog shakes were counted for 5 minutes. For control example, vehicle (a mixture of dimethylacetamide (wako): 0.5% methylcellulose (wako)=5:95) was administrated similarly, and the number of wet-dog shakes was counted in the same manner. A percent inhibition of wet-dog shakes by test compound was calculated from the following formula: [1-(test compound wet-dog shake count/vehicle wet-dog shake count)]×100.
# T1 sequence (Q8R455 whole entry): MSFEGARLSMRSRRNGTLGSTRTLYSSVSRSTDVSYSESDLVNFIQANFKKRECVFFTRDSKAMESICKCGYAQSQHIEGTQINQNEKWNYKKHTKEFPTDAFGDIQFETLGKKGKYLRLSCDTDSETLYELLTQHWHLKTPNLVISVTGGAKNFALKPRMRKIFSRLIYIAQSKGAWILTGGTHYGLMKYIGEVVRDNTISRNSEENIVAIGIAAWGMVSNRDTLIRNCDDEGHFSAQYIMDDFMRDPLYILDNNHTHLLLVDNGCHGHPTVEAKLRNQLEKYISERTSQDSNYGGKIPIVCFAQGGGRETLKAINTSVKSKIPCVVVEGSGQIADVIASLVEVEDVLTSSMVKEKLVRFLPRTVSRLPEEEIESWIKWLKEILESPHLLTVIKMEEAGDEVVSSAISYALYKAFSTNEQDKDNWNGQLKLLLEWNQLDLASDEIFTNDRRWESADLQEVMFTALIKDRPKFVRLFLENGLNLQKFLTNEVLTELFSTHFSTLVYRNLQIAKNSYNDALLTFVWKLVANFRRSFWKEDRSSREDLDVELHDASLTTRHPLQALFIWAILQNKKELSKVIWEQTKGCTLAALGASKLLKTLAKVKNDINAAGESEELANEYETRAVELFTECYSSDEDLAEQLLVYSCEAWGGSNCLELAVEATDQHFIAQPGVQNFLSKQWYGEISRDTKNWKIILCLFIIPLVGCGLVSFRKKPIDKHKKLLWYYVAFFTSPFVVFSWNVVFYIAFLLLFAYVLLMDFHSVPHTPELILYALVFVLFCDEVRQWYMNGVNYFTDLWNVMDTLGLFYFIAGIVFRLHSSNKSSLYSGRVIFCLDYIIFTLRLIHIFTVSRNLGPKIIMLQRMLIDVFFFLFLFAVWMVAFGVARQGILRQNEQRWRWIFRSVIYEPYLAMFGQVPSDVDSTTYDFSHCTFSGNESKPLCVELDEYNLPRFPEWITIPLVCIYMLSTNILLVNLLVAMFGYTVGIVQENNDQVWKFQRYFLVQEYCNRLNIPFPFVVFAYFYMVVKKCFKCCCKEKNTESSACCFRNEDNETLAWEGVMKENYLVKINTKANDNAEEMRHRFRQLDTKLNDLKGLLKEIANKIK
Compound,% inhibition of Wet-Dog Shake (oral dose 3 mg/kg) [%],also measured
"CC(CO)(CO)[C@@H](Cc1ccccn1)NC(=O)c1cccc(F)c1-c1cc(-c2ccc(Cl)cc2)[nH]n1 [Example 35-1, 2-[5-(4-Chlorophenyl)-1H-pyrazol-3-yl]-3-fluoro-N-[(2R)-4-hydroxy-3-(hydroxymethyl)-3-methyl-1-(pyridin-2-yl)butan-2-yl]benzamide]",42,–
O=C(N[C@H](Cc1ccccn1)[C@@H](O)CO)c1cccc(F)c1-c1cc(-c2ccc(F)cc2)[nH]n1 [Example 54-6],47,–
COC(c1ccccn1)[C@H](CO)NC(=O)c1cccc(F)c1-c1cc(-c2ccc(F)cc2)[nH]n1 (some centres unmarked) [Example 43-6],49,–
C[C@H](O)C[C@@H](Cc1ccccn1)NC(=O)c1cccc(F)c1-c1cc(-c2ccc(F)cc2)[nH]n1 [Example 1-130],92,–
C[C@H](O)[C@@H](Cc1ccccc1)NC(=O)c1cccc(F)c1-c1cc(-c2ccc(F)cc2)[nH]n1 [Example 1-104],60,–
O=C(N[C@@H](CO)Cc1cscn1)c1cccc(F)c1-c1cc(-c2ccc(F)cc2)[nH]n1 [Example 1-182],37,–
CO[C@H](CO)[C@@H](Cc1cscn1)NC(=O)c1cccc(F)c1-c1cc(-c2ccc(F)cc2)[nH]n1 [Example 27-21],–,% inhibition of Wet-Dog Shake (oral dose 1 mg/kg): 32%
O=C(N[C@@H](CCO)C(O)c1ccccn1)c1ccccc1-c1n[nH]c(-c2ccc(F)cc2)c1F (some centres unmarked) [Example 1-206],55,–
CC(CO)[C@@H](Cc1ccccn1)NC(=O)c1cccc(F)c1-c1cc(-c2ccc(F)cc2)[nH]n1 (some centres unmarked) [Example 1-164],–,% inhibition of Wet-Dog Shake (oral dose 1 mg/kg): 38%
O=C(NC(CCO)Cc1ccccn1)c1ccccc1-c1cc(-c2ccc(F)cc2)[nH]n1 (centres unmarked) [Example 26-2],69,–
COc1cccnc1C[C@H](CO)NC(=O)c1cccc(F)c1-c1cc(-c2ccc(F)cc2)[nH]n1 [Example 1-196],63,–
"O=C(NCCc1ccccn1)c1cccc(OC(F)(F)F)c1-c1cc(-c2ccccc2)[nH]n1 [Example 4-1, 2-(5-Phenyl-1H-pyrazol-3-yl)-N-[2-(pyridin-2-yl)ethyl]-3-trifluoromethoxybenzamide]",–,% inhibition of Wet-Dog Shake (oral dose 10 mg/kg): 70%
O=C(N[C@@H]([C@H](O)CO)C(F)(F)c1ccccn1)c1cccc(F)c1-c1cc(-c2ccc(F)cc2)[nH]n1 [Example 1-229],–,% inhibition of Wet-Dog Shake (oral dose 1 mg/kg): 56%
CO[C@@H](CO)[C@@H](Cn1cccn1)NC(=O)c1cccc(F)c1-c1cc(-c2ccc(F)cc2)[nH]n1 [Example 27-17],86,–
O=C(N[C@H](Cc1ncccc1F)[C@H](F)CO)c1cccc(F)c1-c1cc(-c2ccc(F)cc2)[nH]n1 [Example 43-41],–,% inhibition of Wet-Dog Shake (oral dose 0.3 mg/kg): 54%
COC[C@@H](O)[C@@H](Cn1nccn1)NC(=O)c1cccc(F)c1-c1cc(-c2ccc(F)cc2)[nH]n1 [Example 60-1],–,% inhibition of Wet-Dog Shake (oral dose 1 mg/kg): 92%
O=C(N[C@@H](CCO)Cc1ncccn1)c1cccc(F)c1-c1cc(-c2ccc(F)cc2)[nH]n1 [Example 1-191],31,–
CO[C@H](CO)[C@@H](Cc1ccccn1)NC(=O)c1cccc(F)c1-c1n[nH]c(-c2ccc(F)cc2)c1F [Example 43-14],–,% inhibition of Wet-Dog Shake (oral dose 1 mg/kg): 100%
CO[C@H](CO)[C@@H](Cc1ncccc1C#N)NC(=O)c1cccc(F)c1-c1cc(-c2ccc(F)cc2)[nH]n1 [Example 27-16],56,–
"CC(C)(O)[C@@H](Cc1ccccn1)NC(=O)c1cccc(F)c1-c1cc(-c2ccc(Cl)cc2)[nH]n1 [Example 34-1HP, 2-[-5-(4-Chlorophenyl)-1H-pyrazol-3-yl]-3-fluoro-N-[(2R)-3-hydroxy-3-methyl-1-(pyridin-2-yl)butan-2-yl]benzamide]",92,–
O=C(N[C@@H](CCO)Cc1ccccn1)c1ccccc1-c1n[nH]c(-c2ccc(Cl)cc2)c1F [Example 1-223],100,–
CO[C@H](CO)[C@@H](Cc1ncccc1F)NC(=O)c1cccc(F)c1-c1cc(-c2ccc(F)cc2)[nH]n1 [Example 27-20],–,% inhibition of Wet-Dog Shake (oral dose 0.3 mg/kg): 56%
C[C@](O)(CO)[C@@H](Cc1ccccn1)NC(=O)c1cccc(Cl)c1-c1cc(-c2ccc(F)cc2)[nH]n1 [Example 1-218],40,–
O=C(N[C@@H](CO)C(O)c1ccccn1)c1cccc(Cl)c1-c1cc(-c2ccc(F)cc2)[nH]n1 (some centres unmarked) [Example 1-210],47,–

Compound,% inhibition of Wet-Dog Shake (oral dose 3 mg/kg) [%],also measured
O=C(NC(CCO)Cc1ccccc1)c1ccccc1-c1cc(-c2ccc(F)cc2)[nH]n1 (centres unmarked) [Example 1-76],–,% inhibition of Wet-Dog Shake (oral dose 10 mg/kg): 72%
O=C(N[C@@H](CO)Cc1ccccn1)c1cccc(OC(F)(F)F)c1-c1cc(-c2ccc(F)cc2)[nH]n1 [Example 1-64],69,–
CO[C@H](CO)[C@@H](Cc1ccccn1)NC(=O)c1cccc(Cl)c1-c1cc(-c2ccc(F)cc2)[nH]n1 [Example 43-4],77,–
O=C(N[C@H](Cc1ccccn1)[C@@H](O)CO)c1cccc(F)c1-c1n[nH]c(-c2ccc(F)cc2)c1F [Example 54-9],40,–
"O=C(N[C@@H](CCO)Cc1ccccn1)c1cccc(Cl)c1-c1cc(-c2ccc(F)cc2)[nH]n1 [Example 36-1, 3-Chloro-2-[5-(4-fluorophenyl)-1H-pyrazol-3-yl]-N-[(2R)-4-hydroxy-1-(pyridin-2-yl)butan-2-yl]benzamide]",39,–
O=C(N[C@H](Cc1ccccn1)[C@H](O)CO)c1cccc(Cl)c1-c1cc(-c2ccc(F)cc2)[nH]n1 [Example 1-169],34,–
COC[C@@H](O)[C@@H](Cc1ccccn1)NC(=O)c1cccc(F)c1-c1cc(-c2ccc(F)cc2)[nH]n1 [Example 27-4],–,% inhibition of Wet-Dog Shake (oral dose 1 mg/kg): 72%
O=C(N[C@@H](CO)Cc1ccccn1)c1cccc(Cl)c1-c1cc(-c2ccc(F)cc2)[nH]n1 [Example 1-103],45,–
O=C(N[C@H](Cc1ccccn1)[C@@H](F)CO)c1cccc(F)c1-c1cc(-c2ccc(F)cc2)[nH]n1 [Example 43-23],–,% inhibition of Wet-Dog Shake (oral dose 1 mg/kg): 100%
CC(O)[C@@H](Cc1ccccn1)NC(=O)c1cccc(F)c1-c1cc(-c2ccc(F)cc2)[nH]n1 (some centres unmarked) [Example 1-124],42,–
COC[C@@H](O)[C@@H](Cc1ccccn1)NC(=O)c1cccc(Cl)c1-c1cc(-c2ccc(F)cc2)[nH]n1 [Example 27-5],52,–
O=C(N[C@@H](CO)C(F)c1ccccn1)c1cccc(F)c1-c1cc(-c2ccc(F)cc2)[nH]n1 (some centres unmarked) [Example 1-231],88,–
O=C(N[C@H](Cn1cccn1)[C@@H](F)CO)c1cccc(F)c1-c1cc(-c2ccc(F)cc2)[nH]n1 [Example 50-11],100,–
CO[C@@H](CO)[C@@H](Cn1cccn1)NC(=O)c1cccc(F)c1-c1n[nH]c(-c2ccc(F)cc2)c1F [Example 27-24],99,–
O=C(N[C@@H](CO)Cc1ccccc1)c1cccc(F)c1-c1cc(-c2ccc(F)cc2)[nH]n1 [Example 1-86],76,–
O=C(N[C@H](Cn1cccn1)[C@@H](O)CF)c1cccc(F)c1-c1cc(-c2ccc(F)cc2)[nH]n1 [Example 50-8],82,–
O=C(N[C@@H](CO)Cc1ccccn1)c1ccccc1-c1cc(-c2ccc(Cl)c(F)c2)[nH]n1 [Example 1-85],–,% inhibition of Wet-Dog Shake (oral dose 10 mg/kg): 86%
O=C(N[C@H](Cc1ncccn1)[C@H](F)CO)c1cccc(F)c1-c1n[nH]c(-c2ccc(F)cc2)c1F [Example 50-10],–,% inhibition of Wet-Dog Shake (oral dose 1 mg/kg): 56%
O=C(N[C@H](Cn1cccn1)[C@H](F)CO)c1cccc(F)c1-c1cc(-c2ccc(F)cc2F)[nH]n1 [Example 43-46],70,–
O=C(N[C@@H](CO)Cc1ccccn1)c1ccccc1-c1cc(-c2ccc(Cl)cc2)[nH]n1 [Example 1-59],46,–
COc1cccnc1C[C@H](CCO)NC(=O)c1cccc(F)c1-c1cc(-c2ccc(F)cc2)[nH]n1 [Example 1-108],61,–
O=C(N[C@H](Cc1ccccn1)C[C@H](O)CO)c1cccc(F)c1-c1cc(-c2ccc(Cl)cc2)[nH]n1 [Example 54-7],41,–
Cn1ccnc1C[C@H](CO)NC(=O)c1cccc(F)c1-c1cc(-c2ccc(F)cc2)[nH]n1 [Example 1-183],36,–

# Source: patent US10287251B2, “Pyrazole derivative or pharmaceutically acceptable salt thereof” (KISSEI PHARMACEUTICAL CO., LTD., priority 2015, dated 2019)
